Test results reported in PubChem BioAssay (NCI).
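A five-concentration, 48-hour dose response in 96-well plates underlies each endpoint, interpolated linearly between surrounding concentrations. Here, GI50 denotes the concentration required for 50% inhibition of growth. TGI: concentration producing complete growth inhibition.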

Legend:
Experiment in all cases: NCI tumour cell line growth inhibition, 48 h
KM12 colon = system: KM12 colon
UACC-257 melanoma = system: UACC-257 melanoma
OVCAR-8 ovarian = system: OVCAR-8 ovarian
OVCAR-5 ovarian = system: OVCAR-5 ovarian
K-562 leukemia = system: K-562 leukemia
MOLT-4 leukemia = system: MOLT-4 leukemia
SN12C renal = system: SN12C renal
PC-3 prostate = system: PC-3 prostate

SMILES	GI50 (KM12 colon) [µM]	TGI (KM12 colon) [µM]	GI50 (UACC-257 melanoma) [µM]	TGI (UACC-257 melanoma) [µM]	GI50 (OVCAR-8 ovarian) [µM]	TGI (OVCAR-8 ovarian) [µM]	GI50 (OVCAR-5 ovarian) [µM]	TGI (OVCAR-5 ovarian) [µM]	GI50 (K-562 leukemia) [µM]	TGI (K-562 leukemia) [µM]	GI50 (MOLT-4 leukemia) [µM]	TGI (MOLT-4 leukemia) [µM]	GI50 (SN12C renal) [µM]	TGI (SN12C renal) [µM]	GI50 (PC-3 prostate) [µM]	TGI (PC-3 prostate) [µM]
CNc1ccc(N=Nc2cccc3ncccc23)cc1	34.3	> 100	> 92.8	> 100	98.1	> 100	0.0278	> 100	19.3	> 100	14.2	> 100	36.5	> 100	15.3	> 100
COc1cccc(C2CC(=O)Nc3cc4c(cc32)CCC4)c1OC (stereo not given)	4.21	18.6	1.11	11.2	3.67	31.9	7.67	> 80.3	3.07	37.5	3.16	10.2	5.4	34.8	3.41	47.3
CCOc1cccc(/C=N/NC(=O)Cc2ccc(Nc3ccnc(C(F)(F)F)c3)cc2)c1O	3.73	84.3	6.84	> 100	3.27	> 100	32.6	> 100	2.25	15	0.499	4.42	4.58	> 100	1.88	21.6
COc1ccc2c(c1)c(-c1cc(-c3cn(C)c4ccc(OC)cc34)[nH]n1)cn2C	> 100	> 100	> 100	> 100	> 100	> 100	> 100	> 100	> 100	> 100	> 100	> 100	> 100	> 100	> 100	> 100
Cc1nc2cc(Nc3nc(Nc4ccc(F)cc4)nc(-c4ccc(Cl)cc4)n3)ccc2n1Cc1ccccc1	4.32	> 100	8.91	> 100	3.93	22	5.76	> 100	5.13	> 100	3.09	> 100	46.4	> 100	3.69	> 100
Cc1ccc2c(C(C[N+](=O)[O-])c3ccco3)c(-c3ccccc3)[nH]c2c1 (stereo not given)	21.5	> 100	> 100	> 100	84.8	> 100	> 100	> 100	5.19	> 100	30.7	> 100	47.8	> 100	39.2	> 100
CC(=O)c1c(Nc2ccc(F)c(F)c2F)[nH]c2c(F)cc(F)cc2c1=O	0.342	5.57	0.338	10	0.365	> 100	0.552	25.4	0.347	> 100	0.425		0.277	3.45	0.252	1.33
NCCNc1nc2ccccc2c2c(=O)c3cc(F)cc(Cl)c3sc12	1.73	3.24	1.85	3.72	1.61	3.57	1.65	3.1	0.261	1.03	1.82	3.69	1.65	3.17	1.42	2.9
CC[C@H](C)[C@H](NC(=O)N[C@@H](C)c1ccccc1)C(=O)N(C)[C@H](C[C@@H](OC(C)=O)c1nc(C(=O)N[C@@H](Cc2ccccc2)C[C@H](C)C(=O)OC)cs1)C(C)C	17.2	84.3	> 100	> 100	35.4	> 100	27.9	> 100					48.8	> 100	27.5	> 100
CCCCCCCCCCCCCCCCCCNC(=O)[C@H]1CSC(c2ccc(F)c(OC)c2)N1 (stereo not given in full)	0.899	1.79	0.971	1.88	0.976	2.7	1	1.91	0.774	2.45	0.717	5.17	0.805	1.72	1.55	12
N#CC1=C(N)NC(=S)C(C#N)C12Nc1ccccc1S2 (stereo not given)	24.8	> 100	19.6	35.4	27.2	65			48.2	> 100	> 100	> 100	14.4	33.2	41	> 100
CCOC(=O)/N=c1\ssc(Cl)c1Cl	16.7	35.9	15.3	30.7	19.7	55.1	4.86	28.1	1.93	> 100	3.06	> 100	6.7	25.8	15.8	36
CC(=O)OC1Oc2cc(C)c(C)cc2-c2oc(=O)c(-c3ccccc3)cc21 (stereo not given)	0.307	11.8	0.537	39	0.545	> 84.5	5.18	> 100	0.178	> 100	0.355		0.487	> 100	0.435	> 100
CC(C)c1ccc2c(c1)c(SC(C)(C)C)c(CC(C)(C)C(=O)O)n2Cc1ccc(Cl)cc1	10.2	26.3	11	24.7	6.81	19.6	14.9	29.2	7.48	37.8	1.64	26.3	12.2	25.3	8.18	23.4
CC(C)(C)OC(=O)n1c(Cl)c(C(=O)N=C=S)c2ccccc21	18.4	52	55.4	> 100	23.3	66.1	23	94.3	47	> 100			67.1	> 100	24.2	> 100
